According to ChEMBL document CHEMBL1141154, “Indolin-2-ones with high in vivo efficacy in a model for multiple sclerosis” (J Med Chem, 2005):

How the values were obtained:
[1] = target: Vascular endothelial growth factor receptor 2 (Homo sapiens, UniProt P35968); test: In vitro inhibition of KDR
PBMC = test: In vitro inhibitory concentration on the production of pro-inflammatory cytokine IL-2 in PBMC (Peripheral blood mononuclear cells) determined by IL-2 PBMC assay; assay type: functional, cell-based; details: Homo sapiens
Mus musculus [2] = test: In vivo percent inhibition of multiple sclerosis (MS) by the compound upon intraperitoneal administration at a dose of 50 mg/kg on EAE model (mice immunized for EAE induction and assessed clinically for 21 days); assay type: functional; details: ip, 504 h
Mus musculus [3] = test: In vivo percent inhibition of multiple sclerosis (MS) by the compound upon oral administration at a dose of 50 mg/kg on EAE model (mice immunized for EAE induction and assessed clinically for 21 days); assay type: functional; details: 504 h
Mus musculus [4] = test: In vivo percent inhibition of multiple sclerosis (MS) by the compound upon intraperitoneal administration at a dose of 50 mg/kg on EAE model (mice immunized for EAE induction and assessed clinically for 21 days); non significant effect; assay type: functional; details: ip, 504 h

Chain of Vascular endothelial growth factor receptor 2 (P35968 whole entry): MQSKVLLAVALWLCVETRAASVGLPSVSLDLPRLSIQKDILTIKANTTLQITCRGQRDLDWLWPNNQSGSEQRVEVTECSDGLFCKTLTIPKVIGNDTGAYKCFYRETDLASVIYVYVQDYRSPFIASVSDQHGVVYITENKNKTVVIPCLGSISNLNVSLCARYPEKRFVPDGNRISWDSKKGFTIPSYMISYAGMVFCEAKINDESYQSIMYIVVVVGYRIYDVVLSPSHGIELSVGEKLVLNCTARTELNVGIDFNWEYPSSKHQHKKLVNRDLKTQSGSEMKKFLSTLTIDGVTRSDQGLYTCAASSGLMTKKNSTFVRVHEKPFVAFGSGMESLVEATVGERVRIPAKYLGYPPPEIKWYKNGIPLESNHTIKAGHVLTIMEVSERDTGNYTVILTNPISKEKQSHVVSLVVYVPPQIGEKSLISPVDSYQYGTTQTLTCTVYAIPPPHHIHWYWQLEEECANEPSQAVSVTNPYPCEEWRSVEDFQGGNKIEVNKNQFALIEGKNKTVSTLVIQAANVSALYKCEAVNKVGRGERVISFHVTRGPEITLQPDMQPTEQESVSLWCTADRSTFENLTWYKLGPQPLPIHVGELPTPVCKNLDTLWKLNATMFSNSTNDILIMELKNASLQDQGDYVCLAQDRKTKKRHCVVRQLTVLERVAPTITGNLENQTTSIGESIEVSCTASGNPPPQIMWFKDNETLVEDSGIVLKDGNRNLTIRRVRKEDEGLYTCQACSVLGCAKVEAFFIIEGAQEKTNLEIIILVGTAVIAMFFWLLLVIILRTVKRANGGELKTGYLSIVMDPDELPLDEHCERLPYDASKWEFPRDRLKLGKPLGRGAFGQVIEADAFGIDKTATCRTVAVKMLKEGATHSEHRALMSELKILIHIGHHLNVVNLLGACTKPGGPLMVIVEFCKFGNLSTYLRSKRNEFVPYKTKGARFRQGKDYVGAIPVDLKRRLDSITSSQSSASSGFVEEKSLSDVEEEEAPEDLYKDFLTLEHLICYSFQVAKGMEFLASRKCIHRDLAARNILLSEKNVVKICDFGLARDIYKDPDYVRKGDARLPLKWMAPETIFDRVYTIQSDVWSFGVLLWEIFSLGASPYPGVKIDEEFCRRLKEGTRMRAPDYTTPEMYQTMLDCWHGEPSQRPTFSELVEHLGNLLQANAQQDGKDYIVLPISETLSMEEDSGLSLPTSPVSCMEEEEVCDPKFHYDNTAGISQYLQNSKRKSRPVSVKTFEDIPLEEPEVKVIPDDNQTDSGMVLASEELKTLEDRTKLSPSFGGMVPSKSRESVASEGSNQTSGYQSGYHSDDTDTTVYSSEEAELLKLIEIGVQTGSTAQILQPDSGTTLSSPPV

IC50 [1] | SMILES | IC50 (PBMC) | inhibition in vivo at 50 mg/kg (Mus musculus [2]) | inhibition in vivo at 50 mg/kg (Mus musculus [3]) | inhibition in vivo at 50 mg/kg (Mus musculus [4])
8000 nM | CCOC(=O)c1cc(C)c(/C=C2\C(=O)Nc3ccccc32)[nH]1 | 14 nM | -44% |  | 
 | O=C1Nc2ccccc2/C1=C/c1c[nH]c2ccccc12 | 8 nM | 84% | 32% | 
320 nM | Cc1[nH]c(/C=C2\C(=O)Nc3ccccc32)c(C)c1Br | 3 nM | -78% |  | 
500 nM | Cc1cc(C)c(/C=C2\C(=O)N(O)c3ccccc32)[nH]1 | 18 nM | -67% |  | 
400 nM | CC(=O)ON1C(=O)/C(=C\c2[nH]c(C)cc2C)c2ccccc21 | 11 nM | -48% |  | 
 | COc1ccc(OC)c(/C=C2/C(=O)Nc3ccccc32)c1 | 21 nM | -90% | -49% | 
320 nM | Cc1cc(CO)[nH]c1/C=C1\C(=O)Nc2ccccc21 | 50 nM | -57% |  | 
> 10000 nM | Cc1cc(C(=O)NCCO)[nH]c1/C=C1\C(=O)Nc2ccccc21 | 30 nM | -41% |  | 
 | Cc1cc(C)c(/C=C2\C(=O)N(CN3CCN(C)CC3)c3ccccc32)[nH]1 |  |  | -56% | 
1000 nM | Cc1[nH]c(/C=C2\C(=O)Nc3ccccc32)c(C)c1Cl | 4 nM | -96% |  | 
> 10000 nM | Cc1cc(C(=O)O)[nH]c1/C=C1\C(=O)Nc2ccccc21 | > 1000 nM |  |  | -23%
100 nM | Cc1cc(C)c(/C=C2\C(=O)Nc3ccc(O)cc32)[nH]1 | 1000 nM |  |  | -12%
 | O=C1Nc2ccccc2/C1=C/c1ccc[nH]1 |  |  |  | -9%
 | Cc1cc(C)c(/C=C2\C(=O)Nc3ccccc32)[nH]1 [SEMAXANIB] |  | -98% |  | 
 | Clc1ccc(Nc2nnc(Cc3ccncc3)c3ccccc23)cc1 [VATALANIB] | > 1000 nM |  |  | 
